In patent publication US9212182B2, “Bicyclic sulfonamide compounds as sodium channel inhibitors” (AMGEN INC., priority 2013, dated 2015):
Read-outs that look alike come from different tables or passages of the source.

Biological target: Nav 1.7 (Homo sapiens (Human), UniProt Q15858)
Assay: in-vitro Nav 1.7 PX (IC50)
Format: cell-based
[1] = in-vitro Nav 1.7 PX data, Table 4

Chain of Nav 1.7 (Q15858 whole entry): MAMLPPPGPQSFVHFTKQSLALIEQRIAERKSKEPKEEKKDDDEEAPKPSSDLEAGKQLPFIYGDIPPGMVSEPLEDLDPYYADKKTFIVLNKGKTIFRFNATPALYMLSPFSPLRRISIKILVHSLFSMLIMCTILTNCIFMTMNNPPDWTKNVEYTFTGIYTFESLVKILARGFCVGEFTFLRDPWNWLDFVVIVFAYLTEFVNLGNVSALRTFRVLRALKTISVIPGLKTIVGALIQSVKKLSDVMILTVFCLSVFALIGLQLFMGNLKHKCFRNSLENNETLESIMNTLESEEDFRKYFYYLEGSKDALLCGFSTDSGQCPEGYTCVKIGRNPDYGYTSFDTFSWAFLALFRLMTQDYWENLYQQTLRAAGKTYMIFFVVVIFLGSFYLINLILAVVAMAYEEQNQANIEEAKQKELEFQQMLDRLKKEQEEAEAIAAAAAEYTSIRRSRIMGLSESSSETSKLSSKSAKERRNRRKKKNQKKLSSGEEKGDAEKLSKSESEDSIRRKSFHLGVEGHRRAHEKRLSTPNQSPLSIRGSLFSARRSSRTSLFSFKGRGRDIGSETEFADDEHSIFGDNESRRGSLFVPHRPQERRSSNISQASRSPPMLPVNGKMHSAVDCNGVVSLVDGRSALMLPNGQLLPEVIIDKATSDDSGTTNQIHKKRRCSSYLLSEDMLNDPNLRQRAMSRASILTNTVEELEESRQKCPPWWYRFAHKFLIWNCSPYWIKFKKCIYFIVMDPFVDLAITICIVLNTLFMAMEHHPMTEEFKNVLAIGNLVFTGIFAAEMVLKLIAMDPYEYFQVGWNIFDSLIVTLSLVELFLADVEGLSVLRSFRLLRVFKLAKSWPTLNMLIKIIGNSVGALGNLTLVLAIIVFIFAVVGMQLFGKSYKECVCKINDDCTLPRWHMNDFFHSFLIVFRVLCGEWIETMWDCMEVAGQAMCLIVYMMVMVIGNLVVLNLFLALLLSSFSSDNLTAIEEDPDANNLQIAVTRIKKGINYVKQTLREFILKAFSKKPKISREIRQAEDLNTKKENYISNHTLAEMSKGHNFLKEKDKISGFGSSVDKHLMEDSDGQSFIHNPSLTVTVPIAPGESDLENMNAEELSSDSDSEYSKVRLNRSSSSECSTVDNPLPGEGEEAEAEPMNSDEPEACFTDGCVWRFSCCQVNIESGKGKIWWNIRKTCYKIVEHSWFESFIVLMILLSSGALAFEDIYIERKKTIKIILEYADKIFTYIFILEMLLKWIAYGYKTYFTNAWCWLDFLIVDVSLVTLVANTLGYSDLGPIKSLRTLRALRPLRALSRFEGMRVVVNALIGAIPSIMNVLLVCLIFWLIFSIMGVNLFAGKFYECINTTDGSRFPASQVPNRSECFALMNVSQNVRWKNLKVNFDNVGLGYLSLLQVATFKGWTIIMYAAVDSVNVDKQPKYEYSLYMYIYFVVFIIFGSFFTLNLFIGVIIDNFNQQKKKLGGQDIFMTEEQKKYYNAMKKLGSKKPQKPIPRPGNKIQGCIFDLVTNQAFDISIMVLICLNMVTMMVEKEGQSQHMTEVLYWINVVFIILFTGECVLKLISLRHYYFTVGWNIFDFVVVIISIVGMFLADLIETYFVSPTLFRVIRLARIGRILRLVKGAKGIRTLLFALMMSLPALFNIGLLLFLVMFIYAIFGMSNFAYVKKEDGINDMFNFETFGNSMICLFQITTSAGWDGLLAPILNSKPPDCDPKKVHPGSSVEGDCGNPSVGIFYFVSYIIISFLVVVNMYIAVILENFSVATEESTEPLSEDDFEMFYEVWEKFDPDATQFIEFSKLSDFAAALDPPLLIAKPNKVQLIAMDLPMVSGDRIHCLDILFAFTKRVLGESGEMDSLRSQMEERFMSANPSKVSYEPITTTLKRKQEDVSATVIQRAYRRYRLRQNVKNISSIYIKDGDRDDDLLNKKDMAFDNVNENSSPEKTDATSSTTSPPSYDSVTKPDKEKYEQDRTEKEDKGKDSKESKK

| SMILES | IC50 (in-vitro Nav 1.7 PX data) [nM] | IC50 [nM] | other results |
| --- | --- | --- | --- |
| COc1cc(-c2ccc(Cl)c(C)c2)c(F)cc1-n1c(=O)ccc2cc(S(=O)(=O)Nc3ncon3)ccc21 (atropisomer, axis not shown; (P)) [Example 663, (P)-1-(4′-chloro-2-fluoro-5-methoxy-3′-methyl-4-biphenylyl)-N-1,2,4-oxadiazol-3-yl-2-oxo-1,2-dihydro-6-quinolinesulfonamide] | 6 | – | – |
| COc1nc(-c2cc(F)cc(F)c2)c(Cl)cc1-n1c(=O)ccc2cc(S(=O)(=O)Nc3ccon3)ccc21 (atropisomer, axis not shown; (P)) [Example 665, (P)-1-(5-chloro-6-(3,5-difluorophenyl)-2-methoxy-3-pyridinyl)-N-3-isoxazolyl-2-oxo-1,2-dihydro-6-quinolinesulfonamide] | 15 | – | – |
| COc1cc(-c2cccc(C(F)(F)F)c2)ccc1-n1c(=O)ccc2cc(S(=O)(=O)Nc3ccncn3)ccc21 (atropisomer, axis not shown; (P)) [Example 671, (P)-1-(3-methoxy-3′-(trifluoromethyl)-4-biphenylyl)-2-oxo-N-4-pyrimidinyl-1,2-dihydro-6-quinolinesulfonamide] | 11 | – | – |
| COc1cc(-c2ccc(-n3c(=O)ccc4cc(S(=O)(=O)Nc5ccon5)ccc43)c(OC)c2)ccc1C (atropisomer, axis not shown; (P)) [Example 686, (P)-1-(3,3′-dimethoxy-4′-methyl-4-biphenylyl)-N-3-isoxazolyl-2-oxo-1,2-dihydro-6-quinolinesulfonamide] | 15 | – | – |
| COc1cc(-c2ccc(Cl)c(C)c2)ccc1-n1c(=O)ccc2cc(S(=O)(=O)Nc3ccc(F)cn3)ccc21 (atropisomer, axis not shown; (P)) [Example 689, (P)-1-(4′-chloro-3-methoxy-3′-methyl-4-biphenylyl)-N-(5-fluoro-2-pyridinyl)-2-oxo-1,2-dihydro-6-quinolinesulfonamide] | 50 | – | – |
| COc1cc(-c2ccc(Cl)c(C)c2)ccc1-n1c(=O)ccc2cc(S(=O)(=O)Nc3ncc(F)cn3)ccc21 (atropisomer, axis not shown; (P)) [Example 690, (P)-1-(4′-chloro-3-methoxy-3′-methyl-4-biphenylyl)-N-(5-fluoro-2-pyrimidinyl)-2-oxo-1,2-dihydro-6-quinolinesulfonamide] | 49 | – | – |
| COc1cc(-c2ccc(Cl)c(C)c2)c(F)cc1-n1c(=O)ccc2cc(S(=O)(=O)Nc3ncc(F)cn3)ccc21 (atropisomer, axis not shown; (P)) [Example 692, (P)-1-(4′-chloro-2-fluoro-5-methoxy-3′-methyl-4-biphenylyl)-N-(5-fluoro-2-pyrimidinyl)-2-oxo-1,2-dihydro-6-quinolinesulfonamide] | 30 | – | – |
| COc1cc(-c2ccc(Cl)c(C)c2)c(F)cc1-n1c(=O)ccc2cc(S(=O)(=O)Nc3ccc(F)cn3)ccc21 (atropisomer, axis not shown; (P)) [Example 693, (P)-1-(4′-chloro-2-fluoro-5-methoxy-3′-methyl-4-biphenylyl)-N-(5-fluoro-2-pyridinyl)-2-oxo-1,2-dihydro-6-quinolinesulfonamide] | 186 | – | – |
| COc1cc(-c2ccc(Cl)c(C)c2)c(F)cc1-n1c(=O)ccc2cc(S(=O)(=O)Nc3ncco3)ccc21 (atropisomer, axis not shown; (P)) [Example 694, (P)-1-(4′-chloro-2-fluoro-5-methoxy-3′-methyl-4-biphenylyl)-N-1,3-oxazol-2-yl-2-oxo-1,2-dihydro-6-quinolinesulfonamide] | 27 | – | – |
| COc1cc(-c2ccc(Cl)c(C)c2)c(F)cc1-n1c(=O)ccc2cc(S(=O)(=O)Nc3cccnn3)ccc21 (atropisomer, axis not shown; (P)) [Example 695, (P)-1-(4′-chloro-2-fluoro-5-methoxy-3′-methyl-4-biphenylyl)-2-oxo-N-3-pyridazinyl-1,2-dihydro-6-quinolinesulfonamide] | 12 | – | – |
| COc1cc(C#CC2(F)CCCC2)c(F)cc1-n1c(=O)ccc2cc(S(=O)(=O)Nc3ccon3)ccc21 (atropisomer, axis not shown; (P)) [Example 1153, (P)-1-(5-fluoro-4-((1-fluorocyclopentyl)ethynyl)-2-methoxyphenyl)-N-3-isoxazolyl-2-oxo-1,2-dihydro-6-quinolinesulfonamide] | – | 35 | – |
| COc1cc(-c2cnc(OC)c(Cl)c2)c(F)cc1-n1c(=O)ccc2cc(S(=O)(=O)Nc3ncc(F)cn3)ccc21 (atropisomer, axis not shown; (P)) [Example 1156, (P)-1-(4-(5-chloro-6-methoxy-3-pyridinyl)-5-fluoro-2-methoxyphenyl)-N-(5-fluoro-2-pyrimidinyl)-2-oxo-1,2-dihydro-6-quinolinesulfonamide] | – | 42 | – |
| COc1cc(-c2cnc(OC)c(Cl)c2)c(F)cc1-n1c(=O)ccc2cc(S(=O)(=O)Nc3cccnn3)ccc21 (atropisomer, axis not shown; (P)) [Example 1157, (P)-1-(4-(5-chloro-6-methoxy-3-pyridinyl)-5-fluoro-2-methoxyphenyl)-2-oxo-N-3-pyridazinyl-1,2-dihydro-6-quinolinesulfonamide] | – | 63 | – |
| COc1cc(-c2cnc(OC)c(Cl)c2)c(F)cc1-n1c(=O)ccc2cc(S(=O)(=O)Nc3ncco3)ccc21 (atropisomer, axis not shown; (P)) [Example 1158, (P)-1-(4-(5-chloro-6-methoxy-3-pyridinyl)-5-fluoro-2-methoxyphenyl)-N-1,3-oxazol-2-yl-2-oxo-1,2-dihydro-6-quinolinesulfonamide] | – | – | IC50 [1]: 89 nM |
| COc1cc(-c2cnc(OC)c(Cl)c2)c(F)cc1-n1c(=O)ccc2cc(S(=O)(=O)Nc3cc(C)ncn3)ccc21 (atropisomer, axis not shown; (P)) [Example 1159, (P)-1-(4-(5-chloro-6-methoxy-3-pyridinyl)-5-fluoro-2-methoxyphenyl)-N-(6-methyl-4-pyrimidinyl)-2-oxo-1,2-dihydro-6-quinolinesulfonamide] | – | – | IC50 [1]: 51 nM |
| COc1cc(-c2cnc(OC)c(Cl)c2)c(F)cc1-n1c(=O)ccc2cc(S(=O)(=O)Nc3ccnc(C)n3)ccc21 (atropisomer, axis not shown; (P)) [Example 1160, (P)-1-(4-(5-chloro-6-methoxy-3-pyridinyl)-5-fluoro-2-methoxyphenyl)-N-(2-methyl-4-pyrimidinyl)-2-oxo-1,2-dihydro-6-quinolinesulfonamide] | – | – | IC50 [1]: 42 nM |
| COc1cc(-c2cnc(OC)c(Cl)c2)c(F)cc1-n1c(=O)ccc2cc(S(=O)(=O)Nc3ccc(F)cn3)ccc21 (atropisomer, axis not shown; (P)) [Example 1161, (P)-1-(4-(5-chloro-6-methoxy-3-pyridinyl)-5-fluoro-2-methoxyphenyl)-N-(5-fluoro-2-pyridinyl)-2-oxo-1,2-dihydro-6-quinolinesulfonamide] | – | – | IC50 [1]: 20 nM |
| COc1cc(-c2cnc(OC)c(Cl)c2)c(F)cc1-n1c(=O)ccc2cc(S(=O)(=O)Nc3cccc(F)n3)ccc21 (atropisomer, axis not shown; (P)) [Example 1162, (P)-1-(4-(5-chloro-6-methoxy-3-pyridinyl)-5-fluoro-2-methoxyphenyl)-N-(6-fluoro-2-pyridinyl)-2-oxo-1,2-dihydro-6-quinolinesulfonamide] | – | – | IC50 [1]: 12 nM |
| COc1cc(-c2ccc(Cl)cc2)c(F)cc1-n1c(=O)ccc2cc(S(=O)(=O)Nc3ccc(F)cn3)ccc21 (atropisomer, axis not shown; (P)) [Example 1163, (P)-1-(4′-chloro-2-fluoro-5-methoxy-4-biphenylyl)-N-(5-fluoro-2-pyridinyl)-2-oxo-1,2-dihydro-6-quinolinesulfonamide] | – | – | IC50 [1]: 159 nM |
| COc1cc(OC)cc(-c2cc(OC)c(-n3c(=O)ccc4cc(S(=O)(=O)Nc5ccnc(C)n5)ccc43)cc2F)c1 (atropisomer, axis not shown; (P)) [Example 1171, (P)-1-(2-fluoro-3′,5,5′-trimethoxy-4-biphenylyl)-N-(2-methyl-4-pyrimidinyl)-2-oxo-1,2-dihydro-6-quinolinesulfonamide] | – | 96 | – |
| COc1cc(-c2cccc(OC(F)F)c2)c(F)cc1-n1c(=O)ccc2cc(S(=O)(=O)Nc3cccnn3)ccc21 (atropisomer, axis not shown; (P)) [Example 1172, (P)-1-(3′-(difluoromethoxy)-2-fluoro-5-methoxy-4-biphenylyl)-2-oxo-N-3-pyridazinyl-1,2-dihydro-6-quinolinesulfonamide] | – | 29 | – |
| COc1cc(-c2cccc(OC(F)F)c2)c(F)cc1-n1c(=O)ccc2cc(S(=O)(=O)Nc3cc(C)ncn3)ccc21 (atropisomer, axis not shown; (P)) [Example 1173, (P)-1-(3′-(difluoromethoxy)-2-fluoro-5-methoxy-4-biphenylyl)-N-(6-methyl-4-pyrimidinyl)-2-oxo-1,2-dihydro-6-quinolinesulfonamide] | – | 146 | – |
| COc1cc(Br)c(F)cc1-n1c(=O)ccc2cc(S(=O)(=O)Nc3cc(OCC4CC4)ncn3)ccc21 (atropisomer, axis not shown; (P)) [Example 1183, (P)-1-(4-bromo-5-fluoro-2-methoxyphenyl)-N-(6-(cyclopropylmethoxy)-4-pyrimidinyl)-2-oxo-1,2-dihydro-6-quinolinesulfonamide] | – | 2610 | – |
| COc1cc(Br)c(F)cc1-n1c(=O)ccc2cc(S(=O)(=O)Nc3cc(OCC4CCC4)ncn3)ccc21 (atropisomer, axis not shown; (P)) [Example 1184, (P)-1-(4-bromo-5-fluoro-2-methoxyphenyl)-N-(6-(cyclobutylmethoxy)-4-pyrimidinyl)-2-oxo-1,2-dihydro-6-quinolinesulfonamide] | – | 3360 | – |
| COc1cc(Br)c(F)cc1-n1c(=O)ccc2cc(S(=O)(=O)Nc3cc(OCC4CCCC4)ncn3)ccc21 (atropisomer, axis not shown; (P)) [Example 1185, (P)-1-(4-bromo-5-fluoro-2-methoxyphenyl)-N-(6-(cyclopentylmethoxy)-4-pyrimidinyl)-2-oxo-1,2-dihydro-6-quinolinesulfonamide] | – | 6640 | – |
| CCCOc1cc(NS(=O)(=O)c2ccc3c(ccc(=O)n3-c3cc(F)c(Br)cc3OC)c2)ncn1 (atropisomer, axis not shown; (P)) [Example 1186, (P)-1-(4-bromo-5-fluoro-2-methoxyphenyl)-2-oxo-N-(6-propoxy-4-pyrimidinyl)-1,2-dihydro-6-quinolinesulfonamide] | – | 246 | – |
